Molecular target: T1, Slc26a7 (Mus musculus, UniProt Q8R2Z3)
T1 construct: native full-length channel in Reissner's membrane epithelial cells (basolateral membrane); Slc26a7 knockout mice as control
T1 sequence (Q8R2Z3 1-656): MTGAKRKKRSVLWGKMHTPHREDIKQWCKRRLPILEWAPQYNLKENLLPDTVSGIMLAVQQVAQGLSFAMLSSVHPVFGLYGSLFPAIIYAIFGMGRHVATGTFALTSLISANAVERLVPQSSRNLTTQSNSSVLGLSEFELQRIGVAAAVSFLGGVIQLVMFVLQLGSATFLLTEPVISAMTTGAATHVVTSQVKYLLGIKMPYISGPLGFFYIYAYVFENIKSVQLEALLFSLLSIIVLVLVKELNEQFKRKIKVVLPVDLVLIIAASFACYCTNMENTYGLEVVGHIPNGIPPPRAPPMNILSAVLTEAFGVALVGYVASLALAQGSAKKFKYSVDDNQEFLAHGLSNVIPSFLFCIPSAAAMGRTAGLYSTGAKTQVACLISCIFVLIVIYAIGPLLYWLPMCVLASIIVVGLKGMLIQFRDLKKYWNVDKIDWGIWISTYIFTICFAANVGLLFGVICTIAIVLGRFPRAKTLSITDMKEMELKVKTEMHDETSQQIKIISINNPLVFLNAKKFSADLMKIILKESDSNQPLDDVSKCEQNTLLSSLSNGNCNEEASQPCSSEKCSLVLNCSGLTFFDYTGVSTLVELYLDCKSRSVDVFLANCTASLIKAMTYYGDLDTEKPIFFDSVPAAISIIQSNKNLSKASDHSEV
Assay: whole-cell patch clamp, wild-type versus Slc26a7 knockout native epithelial cells
Assay type: cell-based
Details: NMDG-Cl pipette, NO3-rich versus Cl-rich bath, +80 mV, pH 7.3, 37 °C; native cells with other anion channels present

O=[N+]([O-])O [NO3 ^−]
whole-cell patch clamp, wild-type versus Slc26a7 knockout native epithelial cell: elevated NO3 ^− current in wild-type cells being mediated by the Slc26a7 Cl^− channel

From PMC4014619, “Slc26a7 Chloride Channel Activity and Localization in Mouse Reissner’s Membrane Epithelium” (PLoS ONE, 2014)
